Reference: US10253002B2, “Compounds and methods of treating infections” (Neoculi Pty Ltd., priority 2013, dated 2019)
Several values for one entry are separate records, joined by “and”; a condition that tells them apart may be missing. Identical values can stand only once.

Legend:
Experiment in all cases: Broth microdilution MIC, Example 7 (NCL812 and analogues)
VRE = assay type: cell-based, Enterococcus spp.; conditions: 24 hours, duplicate lines per compound
In short: (§1)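 Duplicates per isolate, repeated a third time if >one two-fold dilution apart. MIC50, MIC20 and range calculated per bacterial group.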

Pseudomonas aeruginosa = assay type: cell-based; conditions: P. aeruginosa; 24 hours; duplicate lines per compound
MRSA = assay type: cell-based, Staphylococcus aureus; conditions: 24 hours, duplicate lines per compound
In short: as §1

Escherichia coli = assay type: cell-based; conditions: E. coli; 24 hours; duplicate lines per compound

Row | Compound | MIC (μg/ml) at 24 hours, VRE 1 (VRE) [µg/mL] | MIC (μg/ml) at 24 hours, VRE 2 (VRE) | MIC (μg/ml) at 24 hours, P. aeruginosa (Pseudomonas aeruginosa) [µg/mL] | MIC (μg/ml) at 24 hours, MRSA 1 (MRSA) [µg/mL] | MIC (μg/ml) at 24 hours, MRSA 2 (MRSA) | MIC (μg/ml) at 24 hours, E. coli (Escherichia coli) [µg/mL]
1 | Cl.N=C(NN=CC1=C(Cl)c2cc(F)ccc2OC1)NN=CC1=C(Cl)c2cc(F)ccc2OC1 [NCL 132] | >128 | >128 µg/mL | >128 | >128 | >128 µg/mL | >128
2 | Cl.N=C(NN=Cc1cc(Br)co1)NN=Cc1cc(Br)co1 [NCL 133] | >128 | >128 µg/mL | >128 | >128 | >128 µg/mL | >128
3 | Cl.N=C(N/N=C/c1ccc(Br)cc1)N/N=C/c1ccc(Br)cc1 [NCL 134] | >128 | >128 µg/mL | >128 | >128 | >128 µg/mL | >128
4 | COc1cc(Br)c(C=NNC(=N)NN=Cc2cc(OC)c(OC)cc2Br)cc1OC.Cl [NCL 135] | >128 | >128 µg/mL | >128 | >128 | >128 µg/mL | >128
5 | CCCCc1ccc(C=NNC(=N)NN=Cc2ccc(CCCC)cc2)cc1.Cl [NCL 136] | 32 | 128 µg/mL | >128 | 64 | 128 µg/mL | >128
6 | Cl.N=C(NN=Cc1c(Cl)cccc1Cl)NN=Cc1c(Cl)cccc1Cl [NCL 137] | >128 | >128 µg/mL | >128 | >128 | >128 µg/mL | >128
7 | Cl.N=C(NN=CC(=Cc1ccccc1)c1ccccc1)NN=CC(=Cc1ccccc1)c1ccccc1 [NCL 138] | >128 | >128 µg/mL | >128 | >128 | 32 µg/mL | >128
8 | Cl.N=C(NN=Cc1cnc2ccccc2c1)NN=Cc1cnc2ccccc2c1 [NCL 139] | >128 | >128 µg/mL | >128 | >128 | >128 µg/mL | >128
9 | CSc1ccc(C=NNC(=N)NN=Cc2ccc(SC)cc2)cc1.Cl [NCL 140] |  | 8 µg/mL and 16 µg/mL | >128 |  | 16 µg/mL and 32 µg/mL | >128
10 | Cl.N=C(NN=Cc1csc2ccc(Cl)cc12)NN=Cc1csc2ccc(Cl)cc12 [NCL 141] | 16 | >128 µg/mL | >128 | >128 | >128 µg/mL | >128
11 | Cl.N=C(NNCc1ccccc1)NNCc1ccccc1 [NCL 142] | >128 | >128 µg/mL | >128 | >128 | >128 µg/mL | >128
12 | CC(=NNC(=N)NN=C(C)c1ccccc1)c1ccccc1.Cl [NCL 143] | 8 | 8 µg/mL | >128 | 16 | 16 µg/mL | >128
13 | Cl.N=C(NN=Cc1ccc(Br)o1)NN=Cc1ccc(Br)o1 [NCL 144] | >128 | >128 µg/mL | >128 | >128 | >128 µg/mL | >128
14 | Cl.N=C(NN=Cc1ccc(Cl)o1)NN=Cc1ccc(Cl)o1 [NCL 145] | >128 | >128 µg/mL | >128 | >128 | >128 µg/mL | >128
15 | Cl.N=C(NN=Cc1ccc2[nH]ccc2c1)NN=Cc1ccc2[nH]ccc2c1 [NCL 146] | 16 | 16 µg/mL | >128 | 8 | 16 µg/mL | >128
16 | Cl.N=C(NN=Cc1cnc2ccccc2n1)NN=Cc1cnc2ccccc2n1 [NCL 147] | >128 | >128 µg/mL | >128 | >128 | >128 µg/mL | >128
17 | Cl.N=C(NN=Cc1ccc(C=CCC(=O)O)cc1)NN=Cc1ccc(C=CCC(=O)O)cc1 [NCL 148] | >128 | >128 µg/mL | >128 | >128 | >128 µg/mL | >128
18 | Cl.N=C(N/N=C/c1ccncc1)N/N=C/c1ccncc1 [NCL 149] | >128 | >128 µg/mL | >128 | >128 | >128 µg/mL | >128
19 | COc1ccc(C=CC=NNC(=N)NN=CC=Cc2ccc(OC)cc2)cc1.Cl [NCL 150] | >128 | >128 µg/mL | >128 | 128 | 128 µg/mL | >128
20 | Cl.N=C(NN=Cc1ccc(O)cc1)NN=Cc1ccc(O)cc1 [NCL 151] | 128 | 64 µg/mL | >128 | 64 | 64 µg/mL | >128
21 | Cc1cccc(C=NNC(=N)NN=Cc2cccc(C)c2O)c1O.Cl [NCL 152] | >128 | >128 µg/mL | >128 | >128 | >128 µg/mL | >128
